Assay results taken from patent US20240391940A1, “FUSED RING-CONTAINING COMPOUND, APPLICATION THEREOF, AND COMPOSITION CONTAINING SAME” (GenEros Biopharma Ltd., priority 2020, published 2024).
“And” between values parts separate entries of the source, which are not always exact repeats. Equal entries are not always repeated. Where two headings read alike, the source gives them in different places.

How the values were obtained:
[1] = tested on: adjuvant arthritis (AIA) rat model; experiment: Rat AIA (adjuvant arthritis) model; format: in vivo, Lewis rats; conditions: AIA rats, 10 mg/kg daily from day 9, individual animals, 10 mg/kg; for Hind paw volume: in mL (unit assumed)
[2] = tested on: collagen-induced arthritis (CIA) mouse model; experiment: Mouse CIA model, repeated for dose exploration (10, 30, 50 mg/kg); conditions: for Significance of clinical score vs. Vehicle group (Two-way ANOVA): Tofacitinib BID; for Changes in body weight, Mean ± SEM / Clinical scores, Mean ± SEM / Clinical scores: significance vs. solvent control group, two-way ANOVA: G2 Tofacitinib 10 mg/kg
Source text: Testing was repeated for dose exploration
The above method was used.

[3] = tested on: collagen-induced arthritis (CIA) mouse model; conditions: CIA mice; for clinical score: Tofacitinib 10 mg/kg p.o. BID from day 28; for clinical score / body weight: Mean ± SEM; for body weight: Tofacitinib 10 mg/kg

C[C@@H]1CCN(C(=O)CC#N)C[C@@H]1N(C)c1ncnc2[nH]ccc12 [Tofacitinib, reference compound]
body weight ([1]; day 9): 167 g (2×) and 156 g and 146 g and 168 g and 151 g and 154 g and 161 g
clinical scores ([1]; day 9): 1 and 0 (7×)
Hind paw volume ([1]; day 9): 2.1 and 1.42 and 1.4 and 1.35 and 1.24 and 1.1
body weight ([1]; day 10): 165 g and 153 g and 142 g and 168 g and 150 g and 152 g and 160 g and 166 g
body weight ([1]; day 11): 162 g and 154 g and 140 g and 166 g and 145 g and 151 g and 158 g and 167 g
clinical scores ([1]; day 11): 1.5 and 0.5 (4×) and 0 (2×) and 0.25
Hind paw volume ([1]; day 11): 2 and 1.23 and 1.03 and 1.53 and 1.02 and 1.46 and 1.01
body weight ([1]; day 12): 155 g (2×) and 149 g (2×) and 136 g and 159 g and 145 g and 168 g
body weight ([1]; day 13): 154 g (2×) and 148 g and 136 g and 157 g and 140 g and 167 g and 150 g
clinical scores ([1]; day 13): 3.3 and 1 (3×) and 1.5 and 0.5 and 1.2 and 0.7
Hind paw volume ([1]; day 13): 2.59 and 1.92 and 1.72 and 1.16 and 1.39 and 1.11 and 1.83 and 1.47
body weight ([1]; day 14): 151 g and 144 g and 135 g and 154 g and 140 g and 147 g and 153 g and 164 g
body weight ([1]; day 15): 150 g and 145 g and 134 g and 152 g and 139 g and 146 g and 151 g and 162 g
clinical scores ([1]; day 15): 3.5 and 3 and 2 (2×) and 1.5 and 2.5 and 0.8 and 0.7
Hind paw volume ([1]; day 15): 2.54 and 2.22 and 1.31 and 1.33 and 1.65 and 2.45 and 1.18
body weight ([1]; day 16): 153 g and 142 g and 136 g and 152 g and 141 g and 145 g and 147 g and 160 g
body weight ([1]; day 17): 156 g and 147 g and 138 g and 151 g and 142 g and 146 g (2×) and 163 g
clinical scores ([1]; day 17): 3 and 2 (2×) and 1.8 and 1.5 and 2.3 and 1.3 and 0.3
Hind paw volume ([1]; day 17): 2.5 and 2.45 and 2.08 and 1.17 and 2.21 and 1.73 and 2.16 and 0.94
body weight ([1]; day 18): 155 g and 148 g (3×) and 141 g and 151 g and 143 g and 164 g
body weight ([1]; day 19): 160 g and 151 g and 144 g and 159 g and 145 g and 153 g and 154 g and 166 g
clinical scores ([1]; day 19): 2.8 and 2 and 1.3 (2×) and 0.3 and 1.5 and 1 and 0
Hind paw volume ([1]; day 19): 2.81 and 2.85 and 1.96 and 1.46 and 2.31 and 1.83 and 1.42
body weight ([1]; day 20): 159 g and 150 g and 136 g and 160 g and 145 g and 152 g and 153 g and 165 g
body weight ([1]; day 21): 161 g and 150 g and 148 g and 162 g
clinical scores ([1]; day 21): 2 and 1.5 (2×) and 1.3 (2×) and 0 (2×) and 1
Hind paw volume ([1]; day 21): 2.49 and 2.2 and 2.17 and 1.18 and 1.96 and 1.22
clinical scores ([1]; day 23): 3 and 1 (4×) and 6 and 0.5 and 0
Hind paw volume ([1]; day 23): 2.74 and 1.9 and 1.91 and 1.23 and 1.17 and 1.64 and 1.92 and 1.18
Significance of clinical score vs. Vehicle group (Two-way ANOVA) ([2]; CIA mice, Day 35): ** (**P < 0.01)
Significance of clinical score vs. Vehicle group (Two-way ANOVA) ([2]; CIA mice, Day 38): *** (***P < 0.001)
Significance of clinical score vs. Vehicle group (Two-way ANOVA) ([2]; CIA mice, Day 40): **** (****P < 0.0001)
Significance of clinical score vs. Vehicle group (Two-way ANOVA) ([2]; CIA mice, Day 42): **** (****P < 0.0001)
Effect on symptoms of arthritis and lesions in tissues ([2]; CIA mice, positive control tofacitinib): significant improving effect on the symptoms of arthritis and lesions in tissues
Changes in body weight, Mean ± SEM ([2]; Day 21): 20.41 ± 0.27
Clinical scores, Mean ± SEM ([2]; Day 21): 0.0 ± 0.00
Changes in body weight, Mean ± SEM ([2]; Day 24): 19.69 ± 0.37
Clinical scores, Mean ± SEM ([2]; Day 24): 0.0 ± 0.00
Changes in body weight, Mean ± SEM ([2]; Day 26): 19.59 ± 0.36
Clinical scores, Mean ± SEM ([2]; Day 26): 0.3 ± 0.16
Changes in body weight, Mean ± SEM ([2]; Day 28): 19.25 ± 0.50
Clinical scores, Mean ± SEM ([2]; Day 28): 0.6 ± 0.18
Changes in body weight, Mean ± SEM ([2]; Day 31): 18.98 ± 0.53
Clinical scores, Mean ± SEM ([2]; Day 31): 1.8 ± 0.37
Changes in body weight, Mean ± SEM ([2]; Day 33): 19.14 ± 0.43
Clinical scores, Mean ± SEM ([2]; Day 33): 3.1 ± 0.52
Changes in body weight, Mean ± SEM ([2]; Day 35): 19.03 ± 0.46
Clinical scores, Mean ± SEM ([2]; Day 35): 3.6 ± 0.56
Clinical scores: significance vs. solvent control group, two-way ANOVA ([2]; Day 35): ** (** p < 0.01)
Changes in body weight, Mean ± SEM ([2]; Day 38): 18.98 ± 0.45
Clinical scores, Mean ± SEM ([2]; Day 38): 4.6 ± 0.75
Clinical scores: significance vs. solvent control group, two-way ANOVA ([2]; Day 38): *** (*** p < 0.001)
Changes in body weight, Mean ± SEM ([2]; Day 40): 19.56 ± 0.32
Clinical scores, Mean ± SEM ([2]; Day 40): 5.1 ± 0.90
Clinical scores: significance vs. solvent control group, two-way ANOVA ([2]; Day 40): **** (**** p <0.0001)
Changes in body weight, Mean ± SEM ([2]; Day 42): 19.69 ± 0.40
Clinical scores, Mean ± SEM ([2]; Day 42): 5.5 ± 0.87
Clinical scores: significance vs. solvent control group, two-way ANOVA ([2]; Day 42): **** (**** p <0.0001)
clinical score ([3]; day 21): 0.0 ± 0.00
clinical score ([3]; day 25): 0.3 ± 0.16
clinical score ([3]; day 28): 0.8 ± 0.31
clinical score ([3]; day 29): 1.0 ± 0.42
clinical score ([3]; day 32): 1.8 ± 0.49
clinical score ([3]; day 34): 2.5 ± 0.65
clinical score ([3]; day 36): 2.8 ± 0.75
clinical score ([3]; day 39): 3.4 ± 0.80
clinical score ([3]; day 41): 3.5 ± 0.87
body weight ([3]; day 21): 20.39 ± 0.43
body weight ([3]; day 25): 20.54 ± 0.45
body weight ([3]; day 28): 20.63 ± 0.49
body weight ([3]; day 29): 20.2 ± 0.44
body weight ([3]; day 32): 19.91 ± 0.50
body weight ([3]; day 34): 20.39 ± 0.44
body weight ([3]; day 36): 20.26 ± 0.43
body weight ([3]; day 39): 20.31 ± 0.34
body weight ([3]; day 41): 21.04 ± 0.44
Effect on symptoms of arthritis and lesions in tissues ([3]; positive control tofacitinib): significant improving effect on the symptoms of arthritis and lesions in tissues
Joint histopathology (H&E staining) ([3]; tofacitinib 10 mg/kg): no significant lesions in joint tissues
Day on which significant inhibition of the score of arthritis began ([3]; tofacitinib 10 mg/kg BID): 34 days
